Consider 1 compound from patent publication US20140017673A1, “METHOD FOR ENUMERATING EUKARYOTIC CELL MICRONUCLEI WITH AN EMPHASIS ON SIMULTANEOUSLY ACQUIRING CYTOTOXICITY AND MODE OF ACTION INFORMATION” (priority 2012, published 2014).

This assay has as its system TK6 cells. Nature of the assay: Treatment with demecolcine and assessment of anti-H3-P performance (metaphase events by flow cytometry). The class given is cell-based, human. As to conditions: 0.05 ng/ml, 5 hours. How it is done: TK6 cells were treated with 0 or 0.05 ng demecolcine/ml in T25 tissue culture flasks. At the start of treatment, cells were at 5×10^5/ml in a volume of 20 ml per flask. Flasks were incubated at 37° C., 5% CO2, and in a humid atmosphere. After 5 hours, flasks were removed and 1 ml aliquots were placed in to 15 ml centrifuge tubes. Cells were collected via centrifugation, and supernatants aspirated such that approximately 25 μl of supernatant remained per tube. Cells were gently resuspended with tapping. 300 μl “Lysis Solution 1” was added slowly to each tube (approximately 5 seconds per sample). […]
Samples were gently pipetted to resuspend the particles. […] SYTOX®-associated fluorescence emission was collected in the FITC channel, EMA-associated fluorescence was collected in the PerCP-Cy5 channel, and anti-H3-P-Alexa 647 associated fluorescence was collected in the APC channel. Events were triggered on FITC fluorescence. The flow cytometry gating strategy that was developed for this scoring application required events to meet each of several separate criteria before they were scored as nuclei, MN, chromatin debris, or metaphase chromosomes. […]
In this experiment, TK6 cells were treated with 0 or 0.05 ng/ml demecolcine, a metaphase blocking agent. […] However, the anti-H3-P associated fluorescence signal is able to differentiate between G2 and metaphase chromosomes. […]
In general terms: In flow cytometry, cells or beads pass a laser one at a time.

For the compound `CN[C@H]1CCc2cc(OC)c(OC)c(OC)c2-c2ccc(OC)c(=O)cc21` [demecolcine, Demecolcine], the “frequency of 4n anti-H3-P-positive events, FIG. 2” value is on record as “greatly increased”.
